Results from patent US20060073504A1, “Treatment of pain by inhibition of caspase signaling” (The Regents of the University of California, priority 2004, published 2006).
Entries after “also recorded” stand apart in the source; their conditions may differ. Where a name gives a salt, the structure may show the parent alone. Read-outs that look alike come from different tables or passages of the source. * marks the point of attachment. Cbz = O=C(OCc1ccccc1)*; CH2F = FC*

Experiments:
[1] = system: mechanical hyperalgesia induced by vincristine (VCR); experiment: Vincristine-induced mechanical hyperalgesia, paw-withdrawal threshold; format: in vivo, rat; details: inhibitor 5 μg i.d. hind paw, day 5 after VCR 200 μg/kg i.v., read 30 min after inhibitor, p<0.05
Experimental: (§1) Experiments were performed on 220-260-g male Sprague-Dawley rats (Charles River, Fremont, Calif., USA). Rats were housed in groups of 2 under a 12-h light-dark cycle. Food and water were available ad libitum. Experiments were carried out in accordance with NIH regulations for the care and use of animals in research, and under approval of the Institutional Animal Care and Use Committee of the University of California, San Francisco.
(§2) The nociceptive mechanical flexion reflex was quantified with an Ugo Basile Analgesymeter® (Stoelting, Chicago, Ill.), which applies a linearly increasing mechanical force to the dorsum of the rat's hind paw. Mechanical paw-withdrawal thresholds were determined in control (saline treated) and test agent treated rats. Four readings were taken at 5-min intervals and the mean of the last three readings were used to define the baseline paw-withdrawal threshold (Aley and Levine, 1999; Aley et al., 2001). The time at which the readings were taken was based on the time course of each test agent (described in results).
(§3) Algesic agents employed in this study were: vincristine sulfate (VCR), 2′,3′-dideoxycytidine (ddC), streptozotocin sulfate (STZ), tumor necrosis factor-α (TNFα) prostaglandin E2 (PGE2), epinephrine (Epi) (Sigma, St. Louis, Mo.) and N-Acetyl Sphingosine (C2-Ceramide obtained from Upstate USA, Inc, Lake Placid, N.Y.). Doses of the algesic agents were, VCR (200 μg/kg), ddC (50 mg/kg), STZ (50 mg/kg), PGE2 (100 ng/paw) and Epi (100 ng/paw). A single i.v. injection of VCR (200 μg/kg) produced significant mechanical hyperalgesia (>30 % reduction in paw-withdrawal threshold). This effect reached maximum on day 5 following the drug administration and was persistent for more then 15 days (Joseph, 2003 #5). STZ (50 mg/kg, i.v.×1), induced diabetes in rats, as indicated by with a blood glucose level >300 mg/dL, and a nociceptive threshold reduction (>30%). This effect reached maximum on day 3 following administration of the neuropathy inducing drug and was persistent for over 15 days (Joseph, 2003 #4).
(§4) TNFα, C2-Ceramide, PGE2, Epi, and all the inhibitors (see Table I) were administered intradermally (i.d.) on the dorsal surface of the hind paw in a volume of 2.5-5.0 μl, via a 30-gauge hypodermic needle. In co-injection experiments, agents were separated by very small air pockets, in one syringe, so that they could be administered with a single cutaneous needle penetration. As a control, all inhibitors were studied for independent effects on baseline nociceptive threshold. Inhibitors were either co-injected (with TNFα, C2-Ceramide, PGE2, and Epi) or administered on day five following the administration of VCR, ddC and STZ. Drugs were either dissolved in saline (VCR, ddC, STZ, TNF-α, PGE2, Epi) or in 10% DMSO (C2-Ceramide and inhibitors).
(§5) Group data are presented as % reduction in nociceptive threshold (mean+/±SEM) and comparisons between groups performed using Student's t-test (paired or unpaired, as appropriate). A probability of p<0.05 was considered statistically significant.
FIG. 2 depicts the effect of inhibitors of caspases, administered in the hind paw of the rat, on mechanical hyperalgesia induced by the cancer chemotherapy drug Vincristine (VCR). The effect of inhibitors of caspase 1, 2, 3, 8, 9, the non-selective broad-spectrum caspase inhibitor (NS) and the negative control for the non-selective broad-spectrum caspase inhibitor [NS (Con)] on the nociceptive paw-withdrawal thresholds were evaluated. Paw-withdrawal thresholds were measured on the 5th day after injection of VCR and 30 min after the administration of the inhibitors. N=8/group, *=p<0.05, with respect to the value prior to injection of the inhibitor.

[2] = system: mechanical hyperalgesia induced by 2′,3′-dideoxycytidine (ddC); experiment: ddC-induced mechanical hyperalgesia, paw-withdrawal threshold (Ugo Basile Analgesymeter); format: in vivo, rat; details: inhibitor 5 μg i.d. hind paw, day 5 after ddC 50 mg/kg i.v., read 30 min after inhibitor, p<0.05
Experimental: as §1, §2, §3, §4, §5
FIG. 1 depicts the effect of inhibitors of caspases administered in the hind paw of the rat, on mechanical hyperalgesia induced by the AIDS therapy drug 2′,3′-dideoxycytidine (ddC). The effect of inhibitors of caspase 1 (BACMK), 2 (Z-VDAD-FMK), 3 (Ac-DMQD-CHO), 8 (IETD-CHO), 9 (Z-LEHD-FMK.TFA), the non-selective broad-spectrum caspase inhibitor (NS) Z-VAD-FMK and the negative control for the non-selective broad-spectrum caspase inhibitor Z-FA-FMK [NS (Con)] on the nociceptive paw-withdrawal thresholds of rats were evaluated. Paw-withdrawal thresholds were measured on the 5th day after injection of ddC and 30 min after the administration of inhibitors. N=8/group, *=p<0.05, with respect to mechanical nociceptive threshold prior to injection of the inhibitor.

[3] = system: mechanical nociceptive threshold; experiment: Effect of algesic agents on mechanical nociceptive (paw-withdrawal) threshold; format: in vivo, rat; details: for effect on mechanical nociceptive threshold, dose response: intradermal injection, TNFα 1 ng-1 μg, C2-ceramide 1 μg-20 μg; for reduction in nociceptive threshold: 100 ng/paw i.d.
Experimental: as §1, §2
(§6) Algesic agents employed in this study were: vincristine sulfate (VCR), 2′,3′-dideoxycytidine (ddC), streptozotocin sulfate (STZ), tumor necrosis factor-α (TNFα) prostaglandin E2 (PGE2), epinephrine (Epi) (Sigma, St. Louis, Mo.) and N-Acetyl Sphingosine (C2-Ceramide obtained from Upstate USA, Inc, Lake Placid, N.Y.). Doses of the algesic agents were, VCR (200 μg/kg), ddC (50 mg/kg), STZ (50 mg/kg), PGE2 (100 ng/paw) and Epi (100 ng/paw).
(§7) Inhibitors of caspases and neutral sphingomyelinase are described in Table I, which is repeated for convenience. The doses of TNFα (100 ng) and C2-Ceramide (10 μg) were based on dose response experiments performed as part of this study. VCR, STZ, and ddC were administered intravenously (i.v.) in a volume of 1 ml/kg, followed by 0.5 ml saline. Control rats received equal volume of saline.
as §4
FIG. 3 depicts: A. Dose response (1 ng-1 μg) curve for the effect of TNF-α on mechanical nociceptive threshold, and B. Onset and time course of mechanical hyperalgesia induced by 100 ng of TNF-α. N=6/group.
FIG. 5 depicts the dose response (1-20 μg) curve for the effect of ceramide on the mechanical nociceptive threshold. N=6/group.

[4] = system: mechanical hyperalgesia induced by TNF-α; experiment: TNFα-induced mechanical hyperalgesia, inhibitors co-injected; format: in vivo, rat; details: read at 30 min
Experimental: as §1, §2
as §7, with “of saline. […]” for “of saline.”
FIG. 4 depicts the effect of inhibitors of caspases and sphingomyelinase on mechanical hyperalgesia induced by tumor necrosis factor alpha (TNF-α). The effect of inhibitors of caspase 1, 2, 3, 8, 9, the non-selective broad-spectrum caspase inhibitor (NS), the negative control for the non-selective broad-spectrum caspase inhibitor [NS (Con)], and the neutral sphingomyelinase inhibitor (GW4869) on the nociceptive paw-withdrawal thresholds of rats was evaluated. The inhibitors were co-injected with TNF-α and the paw-withdrawal thresholds measured 30 min after the drug administration. […]

[5] = system: mechanical nociceptive threshold; details: cited from earlier work
[6] = STZ 50 mg/kg i.v. ×1; cited from earlier work
[7] = system: mechanical hyperalgesia induced by ceramide; experiment: C2-ceramide-induced mechanical hyperalgesia, inhibitors co-injected; format: in vivo, rat; details: inhibitor 5 μg co-injected i.d. with C2-ceramide 10 μg, read at 1 hr; p<0.05
Experimental: as §1, §2
Inhibitors of caspases and neutral sphingomyelinase are described in Table I, which is repeated for convenience. […]
FIG. 6 depicts the effect of inhibitors of caspases on mechanical hyperalgesia induced by ceramide. […] The inhibitors were co-injected with ceramide and paw-withdrawal thresholds measured 1 hr after the drug administration. […]

[8] = system: STZ-induced mechanical hyperalgesia; experiment: STZ (diabetes)-induced mechanical hyperalgesia, paw-withdrawal threshold; format: in vivo, rat; details: single test dose 5 μg i.d. hind paw, rats treated with STZ 50 mg/kg i.v.
Experimental: as §1, §2
as §6, with “Doses of the algesic agents were, VCR (200 μg/kg), ddC (50 mg/kg), STZ (50 mg/kg), PGE2 (100 ng/paw) and Epi (100 ng/paw).” left out

[9] = system: mechanical nociceptive threshold of normal/control rats; experiment: Independent effect of inhibitors on baseline mechanical nociceptive threshold in control rats; format: in vivo, rat; details: i.d. hind paw, data not shown
Experimental: as §1, §2
TNFα, C2-Ceramide, PGE2, Epi, and all the inhibitors (see Table I) were administered intradermally (i.d.) on the dorsal surface of the hind paw in a volume of 2.5-5.0 μl, via a 30-gauge hypodermic needle. […]

[10] = system: epinephrine (Epi)-induced hyperalgesia; experiment: Epinephrine-induced mechanical hyperalgesia, inhibitor co-injected; format: in vivo, rat; details: co-injected with Epi 100 ng/paw, read at 30 min
Experimental: as §1
as §2, with “results). […]” for “results).”
(§8) FIG. 7 depicts the effect of the non-selective caspase inhibitor on prostaglandin E2 (PGE2), epinephrine (Epi)-induced hyperalgesia. The caspase inhibitor was co-injected with PGE2 and epinephrine and the paw-withdrawal thresholds measured 30 min after the drug administration. […]

[11] = system: prostaglandin E2 (PGE2)-induced hyperalgesia; experiment: PGE2-induced mechanical hyperalgesia, inhibitor co-injected; format: in vivo, rat; details: co-injected with PGE2 100 ng/paw, read at 30 min
Experimental: as §1
as §2, with “results). […]” for “results).”
as §8

[12] = single i.v. injection: VCR 200 μg/kg, STZ 50 mg/kg
[13] = listed as inhibitor of caspase 3
[14] = inhibitor 5 μg co-injected i.d. with TNFα 100 ng, p<0.05

## CC(C)(C)OC(=O)N[C@@H](CC(=O)OCc1ccccc1)C(=O)CCl [BACMK, Boc-Asp(Obzl)-CMK]
[1]
  effect on vincristine-induced mechanical hyperalgesia: significantly attenuated hyperalgesia
[2]
  effect on ddC-induced mechanical hyperalgesia: significantly attenuated hyperalgesia

## CCCCCCCCCCCCC/C=C/[C@@H](O)[C@H](CO)NC(C)=O [C2-ceramide, N-Acetyl Sphingosine]
[3]
  effect on mechanical nociceptive threshold, dose response: dose-dependent hyperalgesia

## CNC[C@H](O)c1ccc(O)c(O)c1 [Epi, epinephrine]
[3]
  reduction in nociceptive threshold: significant reduction in nociceptive threshold

## O=C(/C=C/c1ccc(/C=C/C(=O)Nc2ccc(C3=NCCN3)cc2)cc1)Nc1ccc(C2=NCCN2)cc1 [GW4869]
[4]; sphingomyelinase inhibitor 1 μg co-injected i.d. with TNFα 100 ng
  effect on TNFα-induced hyperalgesia: markedly attenuated

## CCCCC[C@H](O)/C=C/[C@H]1[C@H](O)CC(=O)[C@@H]1C/C=C\CCCC(=O)O [PGE2, prostaglandin E2]
[3]
  reduction in nociceptive threshold: significant reduction in nociceptive threshold

## CN(N=O)C(=O)N[C@@H]1[C@@H](O)[C@H](O)[C@@H](CO)O[C@@H]1O [STZ, streptozotocin sulfate]
[5]; [12]
  day of maximum hyperalgesic effect after drug administration: 3 days
[6]
  blood glucose level: > 300 mg/dL

## CC[C@]1(O)C[C@H]2CN(CCc3c([nH]c4ccccc34)[C@@](C(=O)OC)(c3cc4c(cc3OC)N(C=O)[C@H]3[C@@](O)(C(=O)OC)[C@H](OC(C)=O)[C@]5(CC)C=CCN6CC[C@]43[C@@H]65)C2)C1 [VCR, vincristine sulfate]
[5]; [12]
  day of maximum hyperalgesic effect after drug administration: 5 days

## Nc1ccn([C@H]2CC[C@@H](CO)O2)c(=O)n1 [ddC, 2′,3′-dideoxycytidine]
[5]; single dose ddC 50 mg/kg i.v., from day 1
  reduction in nociceptive threshold: significant reduction in nociceptive threshold
[5]; single i.v. injection: VCR 200 μg/kg, STZ 50 mg/kg, ddC 50 mg/kg
  persistence of hyperalgesia: over 20 days

## Ac-Asp-Met-Gin-Asp-CHO [Ac-DMQD-CHO]
[1]; [13]
  effect on vincristine-induced mechanical hyperalgesia: significantly reversed mechanical hyperalgesia; also recorded: only moderately attenuated
[2]; [13]
  effect on ddC-induced mechanical hyperalgesia: significantly reversed mechanical hyperalgesia; also recorded: markedly attenuating ddC hyperalgesia

## Cbz-VD(OMe)VAD(OMe)-CH2F [Z-VDAD-FMK]
[1]
  effect on vincristine-induced mechanical hyperalgesia: significantly attenuated hyperalgesia
[2]
  effect on ddC-induced mechanical hyperalgesia: significantly attenuated hyperalgesia

## IETD-CHO
[1]
  effect on vincristine-induced mechanical hyperalgesia: significantly attenuated hyperalgesia
[2]
  effect on ddC-induced mechanical hyperalgesia: significantly attenuated hyperalgesia

## TNFα
[3]; TNFα 100 ng i.d.
  latency to onset of hyperalgesia: approximately 5 minutes
[3]; TNFα 100 ng i.d., at 3 hours
  time course of hyperalgesia: not attenuated at 3 hours
[3]
  effect on mechanical nociceptive threshold, dose response: dose-dependent (1 ng-1 μg) decrease in mechanical nociceptive threshold

## Z-Leu-Glu(OMe)-His-Asp-(OMe)FMK [Z-LEHD-FMK.TFA]
[1]
  effect on vincristine-induced mechanical hyperalgesia: significantly attenuated hyperalgesia
[2]
  effect on ddC-induced mechanical hyperalgesia: significantly attenuated hyperalgesia

## Z-Phe-Ala-CH2F [Z-FA-FMK]
[7]
  effect on C2-ceramide-induced hyperalgesia: not
[4]; [14]
  effect on TNFα-induced hyperalgesia: not

## Z-Val-Ala-Asp(OMe)-Fluoro methyl ester [Z-VAD-FMK]
[7]
  effect on C2-ceramide-induced hyperalgesia: significantly less hyperalgesia
[1]
  effect on vincristine-induced mechanical hyperalgesia: markedly attenuated; also recorded: moderately attenuating pain
[8]
  effect on STZ-induced mechanical hyperalgesia: did not produce significant attenuation of hyperalgesia; also recorded: having no effect
[9]
  effect of inhibitor alone on mechanical nociceptive threshold: had no effect on mechanical nociceptive threshold
[10]
  effect on Epi-induced hyperalgesia: had no effect on the hyperalgesia
[2]
  effect on ddC-induced mechanical hyperalgesia: markedly attenuated; also recorded: markedly attenuating pain-related behavior
[11]
  effect on PGE2-induced hyperalgesia: had no effect on the hyperalgesia
[4]; [14]
  effect on TNFα-induced hyperalgesia: markedly attenuated
